Results taken from patent US20100280061A1, “NOVEL ANALGESIC THAT BINDS FILAMIN A” (priority 2009, published 2010).

Key:
[1] = target: Bn-VAKGL pentapeptide of filamin A (FLNA) (Homo sapiens, UniProt P21333); test: FITC-NLX-based FLNA screening assay (FLNA peptide binding assay); conditions: 10 nM FITC-NLX
Description: The final assay volume is 100 μl.
Compounds are tested in triplicate or quadruplicate.

mu opiate receptor (MOR) = target: T1, mu opiate receptor (MOR) (Rattus norvegicus, UniProt P33535); test: [35S]GTPγS binding assay using striatal membranes (MOR agonist activity); assay type: biochemical; design: MOR agonist activity, [35S]GTPγS binding to Gαo, 0.1 μM / MOR agonist activity, [35S]GTPγS binding to Gαo, 1 μM / MOR agonist activity, [35S]GTPγS binding to Gαo, 1 μM + BFNA: reference not given here; conditions: for MOR agonist activity, [35S]GTPγS binding to Gαo, 0.1 μM: 0.1 μM compound; for MOR agonist activity, [35S]GTPγS binding to Gαo, 0.1 μM / MOR agonist activity, [35S]GTPγS binding to Gαo, 1 μM: striatal membranes; for MOR agonist activity, [35S]GTPγS binding to Gαo, 1 μM + BFNA: 1 μM compound + 1 μM β-funaltrexamine; for MOR agonist activity, [35S]GTPγS binding to Gαo, 1 μM: 1 μM compound
T1 construct: from tissue; host or cells: striatal tissue (membrane preparation)
T1 sequence (P33535 whole entry): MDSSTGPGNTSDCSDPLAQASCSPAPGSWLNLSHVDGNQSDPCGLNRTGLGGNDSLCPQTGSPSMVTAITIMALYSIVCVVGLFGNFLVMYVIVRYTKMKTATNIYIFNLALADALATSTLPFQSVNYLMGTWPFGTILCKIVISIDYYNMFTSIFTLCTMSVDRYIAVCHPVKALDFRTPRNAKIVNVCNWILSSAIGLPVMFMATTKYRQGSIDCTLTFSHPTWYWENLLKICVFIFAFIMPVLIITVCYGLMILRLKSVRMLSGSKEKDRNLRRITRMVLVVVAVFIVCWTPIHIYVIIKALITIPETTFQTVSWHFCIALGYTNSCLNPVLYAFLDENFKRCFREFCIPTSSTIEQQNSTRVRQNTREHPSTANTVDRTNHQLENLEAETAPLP
Description: To assess the mu opiate receptor (MOR) agonist activity of positive compounds from the FLNA screening, compounds were tested in a [^35S]GTPγS binding assay using striatal membranes. Our previous study has shown that in striatal membranes, activation of MOR leads to an increase in [^35S]GTPγS binding to Gαo (Wang et al., 2005 Neuroscience 135:247-261).
Striatal tissue was homogenized in 10 volumes of ice cold 25 mM HEPES buffer, pH 7.4, which contained 1 mM EGTA, 100 mM sucrose, 50 μg/ml leupeptin, 0.04 mM PMSF, 2 μg/ml soybean trypsin inhibitor and 0.2% 2-mercaptoethanol. The homogenates were centrifuged at 800×g for 5 minutes and the supernatants were centrifuged at 49,000×g for 20 minutes. The resulting pellets were suspended in 10 volume of reaction buffer, which contained 25 mM HEPES, pH 7.5, 100 mM NaCl, 50 μg/ml leupeptin, 2 μg/ml soybean trypsin inhibitor, 0.04 mM PMSF and 0.02% […].
The resultant striatal membrane preparation (200 μg) was admixed and maintained (incubated) at 30° C. for 5 minutes in reaction buffer as above that additionally contained 1 mM MgCl2 and 0.5 nM [^35S]GTPγS (0.1 μCi/assay, PerkinElmer Life and Analytical Sciences) in a total volume of 250 μl and continued for 5 minutes in the absence or presence of 0.1-10 μM of an assayed compound of interest. The reaction was terminated by dilution with 750 μl of ice-cold reaction buffer that contained 20 mM MgCl2 and 1 mM EGTA and immediate centrifugation at 16,000×g for 5 minutes.
The resulting pellet was solubilized by sonicating for 10 seconds in 0.5 ml of immunoprecipitation buffer containing 0.5% digitonin, 0.2% sodium cholate and 0.5% NP-40. Normal rabbit serum (1 μl) was added to 1 ml of lysate and incubated at 25° C. for 30 minutes. Nonspecific immune complexes were removed by incubation with 25 μl of protein A/G-conjugated agarose beads at 25° C. for 30 minutes followed by centrifugation at 5,000×g at 4° C. for 5 minutes. The supernatant was divided and separately incubated at 25° C. for 30 minutes with antibodies raised against Gαo proteins (1:1,000 dilutions).
The immunocomplexes so formed were collected by incubation at 25° C. for 30 minutes with 40 μl of agarose-conjugated protein A/G beads and centrifugation at 5,000×g at 4° C. for 5 minutes. The pellet was washed and suspended in buffer containing 50 mM Tris-HCl, pH 8.0, and 1% NP-40. The radioactivity in the suspension was determined by liquid scintillation spectrometry. […] DAMGO (H-Tyr-D-Ala-Gly-N-MePhe-Gly-OH; 1 or 10 μM) was used as a positive control.

[2] = test system: MOR-Gs/olf and MOR-Go coupling; test: Relative Gs/Go switching in organotypic striatal slice cultures (MOR-G protein coupling); assay type: cell-based, rat; conditions: 7 days of twice daily 1-hour exposures, organotypic striatal slice cultures
Description: The experiments described herein were carried out on organotypic striatal slices from male Sprague Dawley rats (200 to 250 g) purchased from Taconic (Germantown, N.Y.). Rats were housed two per cage and maintained on a regular 12-hour light/dark cycle in a climate-controlled room with food and water available ad libitum and sacrificed by rapid decapitation. All data are presented as mean±standard error of the mean. Treatment effects were evaluated by two-way ANOVA followed by Newman-Keul's test for multiple comparisons. Two-tailed Student's t test was used for post hoc pairwise comparisons. The threshold for significance was p<0.05.
Striatal slices ([…]) were prepared using a Mcllwain tissue chopper (Mickle Laboratory Engineering Co., Surrey, UK). Slices were carefully transferred to sterile, porous culture inserts (0.4 μm, Millicell-CM) using the rear end of a glass Pasteur pipette. Each culture insert unit contained 2 slices and was placed into one well of the 12-well culture tray. […] The pH value was adjusted to 7.2 with HEPES buffer.
Cultures were first incubated for 2 days to minimize the impact of injury from slice preparation. Incubator settings throughout the experiment were 36° C. with 5% CO2.
Slices were returned to culture medium with normal serum after each drug exposure. Tissues were harvested 16 hours after the last drug exposure by centrifugation.
For determination of MOR-G protein coupling, slices were homogenized to generate synaptic membranes. […] Following centrifugation, striatal membrane lysates were immunoprecipitated with immobilized anti-Gαs/olf or -Gαo conjugated with immobilized protein G-agarose beads. The level of MOR in anti-Gαs/olf or -Gαo immunoprecipitates was determined by Western blotting using specific anti-MOR antibodies.

SMILES | Percent inhibition of FITC-NLX binding, 0.01 μM ([1]; 0.01 μM compound) | Percent inhibition of FITC-NLX binding, 0.1 μM ([1]; 0.1 μM compound) | Percent inhibition of FITC-NLX binding, 1 μM ([1]; 1 μM compound) | MOR agonist activity, [35S]GTPγS binding to Gαo, 0.1 μM (mu opiate receptor (MOR)) | MOR agonist activity, [35S]GTPγS binding to Gαo, 1 μM + BFNA (mu opiate receptor (MOR)) | MOR agonist activity, [35S]GTPγS binding to Gαo, 1 μM (mu opiate receptor (MOR)) | inhibition at 0.01 µM ([1]; read-out: Percent inhibition of FITC-NLX binding, 0.01 μM compound) | inhibition at 0.1 µM ([1]; read-out: Percent inhibition of FITC-NLX binding, 0.1 μM compound) | inhibition at 1 µM ([1]; read-out: Percent inhibition of FITC-NLX binding, 1 μM compound) | switch of mu opioid receptors from Go to Gs coupling [2]
COc1c2c(cc3c1C(CC(=O)Cc1ccccc1Cl)[N+](C)(C)CC3)OCO2.[I-] (stereo not shown) [B0039] | 43.3% | 45.7% | 50.9% | 171.8% | 78.3% | 290.5% | – | – | – | –
COCOc1ccc(C(=O)CC2c3c(cc4c(c3OC)OCO4)CC[N+]2(C)C)cc1C.[I-] (stereo not shown) [B0041] | 44.0% | 46.8% | 52.8% | 61.6% | 41.9% | 109.3% | – | – | – | –
COc1ccc(CCC(=O)CC2c3c(cc4c(c3OC)OCO4)CC[N+]2(C)C)cc1OC.[I-] (stereo not shown) [B0042] | 40.8% | 46.4% | 51.6% | 69.9% | 43.1% | 107.5% | – | – | – | –
COc1ccc(CCC(=O)CC2c3c(cc4c(c3OC)OCO4)CC[N+]2(C)C)c(OC)c1 (stereo not shown) [B0043] | 30.8% | 39.2% | 46.8% | 74.8% | 166.4% | 248.1% | – | – | – | –
COc1ccc(OC)c(CCC(=O)CC2c3c(cc4c(c3OC)OCO4)CC[N+]2(C)C)c1 (stereo not shown) [B0044] | 35.2% | 39.5% | 44.4% | 87.3% | 134.6% | 170.0% | – | – | – | –
COc1ccccc1CCC(=O)CC1c2c(cc3c(c2OC)OCO3)CC[N+]1(C)C (stereo not shown) [B0045] | 63.2% | 68.2% | 73.9% | 129.3% | 83.8% | 193.1% | – | – | – | –
COc1ccc(CCC(O)CC2c3c(cc4c(c3OC)OCO4)CCN2C)cc1 (stereo not shown) [B0048] | 34.7% | 41.9% | 43.9% | 185.1% | 78.5% | 223.4% | – | – | – | –
COc1ccc(CCC(O)CC2c3c(cc4c(c3OC)OCO4)CC[N+]2(C)C)cc1 (stereo not shown) [B0049] | 32.2% | 40.1% | 47.1% | 181.6% | 133.2% | 364.0% | – | – | – | –
COc1c2c(cc3c1C(CC(=O)CCc1ccccc1)N(C)CC3)OCO2 (stereo not shown) [B0050] | 29.2% | 34.5% | 39.8% | 98.2% | 48.8% | 211.0% | – | – | – | –
COc1c2c(cc3c1C(CC(O)CCc1ccccc1)N(C)CC3)OCO2 (stereo not shown) [B0051] | 29.9% | 35.7% | 43.7% | 115.6% | 43.8% | 161.9% | – | – | – | –
COc1c2c(cc3c1C(CC(O)CCc1ccccc1)[N+](C)(C)CC3)OCO2 (stereo not shown) [B0052] | 30.2% | 39.1% | 44.3% | 98.2% | 40.9% | 151.7% | – | – | – | –
COc1c2c(cc3c1C(CC(O)Cc1ccccc1C)N(C)CC3)OCO2 (stereo not shown) [B0054] | – | – | – | 157.8% | 111.0% | 186.7% | 25.6% | 32.6% | 43.3% | –
COc1ccc2c3c1O[C@H]1C(=O)CC[C@@]4(O)[C@@H](C2)N(C)CC[C@]314 [Oxycodone, oxycodone, reference compound] | – | – | – | – | – | – | – | – | – | switch from Go to Gs coupling
